From ChEMBL document CHEMBL4177587, “SIRT6 inhibitors with salicylate-like structure show immunosuppressive and chemosensitizing effects” (Bioorg Med Chem, 2017)
Values after ≈ are worked out from the molar mass of the structure shown. Active and inactive are the calls of the source. The rule behind the calls is not given here.

Tests used:
[1] = molecular target: T1, NAD-dependent protein deacylase sirtuin-6 (Homo sapiens, UniProt Q8N6T7); test: Inhibition of human recombinant SIRT6 assessed as reduction in NAD+-dependent deacetylase activity at 200 uM using Arg-His-Lys-Lys(epsilon-acetyl)-AMC substrate and NAD+ by fluorescence based assay
[2] = molecular target: T2, NAD-dependent protein deacetylase sirtuin-1 (Homo sapiens, UniProt Q96EB6); test: Inhibition of human recombinant SIRT1 assessed as reduction in NAD+-dependent deacetylase activity using Arg-His-Lys-Lys(epsilon-acetyl)-AMC substrate and NAD+ by fluorescence based assay
T2 sequence (Q96EB6 whole entry): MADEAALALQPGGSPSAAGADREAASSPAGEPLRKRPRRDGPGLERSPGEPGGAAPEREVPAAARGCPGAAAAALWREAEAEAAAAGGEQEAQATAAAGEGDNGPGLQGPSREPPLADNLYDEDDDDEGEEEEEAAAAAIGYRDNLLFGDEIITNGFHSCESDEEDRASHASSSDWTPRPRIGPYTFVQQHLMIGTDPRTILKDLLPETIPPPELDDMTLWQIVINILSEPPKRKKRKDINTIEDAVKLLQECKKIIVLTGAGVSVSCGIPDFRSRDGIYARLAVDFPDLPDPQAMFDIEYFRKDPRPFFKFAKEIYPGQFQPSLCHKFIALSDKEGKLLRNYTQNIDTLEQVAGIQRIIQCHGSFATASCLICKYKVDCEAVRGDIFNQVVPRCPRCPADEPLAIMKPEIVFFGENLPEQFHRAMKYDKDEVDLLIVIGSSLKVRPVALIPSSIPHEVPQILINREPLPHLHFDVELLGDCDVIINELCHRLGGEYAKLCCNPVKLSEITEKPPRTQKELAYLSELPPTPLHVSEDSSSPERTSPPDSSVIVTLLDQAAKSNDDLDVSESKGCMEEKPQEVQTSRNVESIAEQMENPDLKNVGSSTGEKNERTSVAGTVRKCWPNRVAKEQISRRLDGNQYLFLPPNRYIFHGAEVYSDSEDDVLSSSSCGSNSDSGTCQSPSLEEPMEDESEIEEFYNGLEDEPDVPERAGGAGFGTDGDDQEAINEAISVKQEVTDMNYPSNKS

[3] = molecular target: T3, NAD-dependent protein deacetylase sirtuin-2 (Homo sapiens, UniProt Q8IXJ6); test: Inhibition of human recombinant SIRT2 assessed as reduction in NAD+-dependent deacetylase activity using Arg-His-Lys-Lys(epsilon-acetyl)-AMC substrate and NAD+ by fluorescence based assay
T3 sequence (Q8IXJ6 whole entry): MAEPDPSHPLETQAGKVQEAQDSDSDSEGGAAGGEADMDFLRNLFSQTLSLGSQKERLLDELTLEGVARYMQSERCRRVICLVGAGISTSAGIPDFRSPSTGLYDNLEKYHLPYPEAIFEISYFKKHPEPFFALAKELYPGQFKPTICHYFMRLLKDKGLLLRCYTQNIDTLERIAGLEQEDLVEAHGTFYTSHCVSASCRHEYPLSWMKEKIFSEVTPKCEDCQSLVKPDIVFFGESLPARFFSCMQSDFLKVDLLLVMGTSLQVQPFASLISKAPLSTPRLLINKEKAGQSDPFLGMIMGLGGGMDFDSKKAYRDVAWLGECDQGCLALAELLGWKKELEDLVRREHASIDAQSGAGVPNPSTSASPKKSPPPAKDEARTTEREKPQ

[4] = molecular target: T1, NAD-dependent protein deacylase sirtuin-6; test: Competitive inhibition of human recombinant SIRT6 assessed as reduction in NAD+-dependent deacetylase activity at 50 uM using fixed Arg-His-Lys-Lys(epsilon-acetyl)-AMC substrate and varying NAD+ by fluorescence based assay based double-reciprocal plot
[5] = molecular target: T1, NAD-dependent protein deacylase sirtuin-6; test: Competitive inhibition of human recombinant SIRT6 assessed as reduction in NAD+-dependent deacetylase activity at 50 uM using varying Arg-His-Lys-Lys(epsilon-acetyl)-AMC substrate and fixed NAD+ by fluorescence based assay based double-reciprocal plot
[6] = molecular target: T1, NAD-dependent protein deacylase sirtuin-6; test: Inhibition of SIRT6 in human BxPC3 cells assessed as increase in H3K9 acetylation by immunoblotting relative to untreated control; type: cell-based; set-up: concentration or dose not given beside the values
[7] = molecular target: T1, NAD-dependent protein deacylase sirtuin-6; test: Inhibition of SIRT6 in human BxPC3 cells assessed as increase in 2-NBDG uptake at 100 uM incubated for 18 hrs by glucose uptake assay; type: cell-based
[8] = molecular target: T1, NAD-dependent protein deacylase sirtuin-6; test: Inhibition of SIRT6 in human BxPC3 cells assessed as reduction in TNFalpha production at 100 uM incubated for 18 hrs by ELISA method; type: cell-based
[9] = molecular target: T1, NAD-dependent protein deacylase sirtuin-6; test: Inhibition of SIRT6 in human PBMC cells assessed as increase in H3K9 acetylation at 200 uM incubated for 24 hrs by immunoblotting relative to untreated control; type: cell-based
[10] = molecular target: T1, NAD-dependent protein deacylase sirtuin-6; test: Inhibition of SIRT6 in human PBMC cells assessed as increase in H3K56 acetylation at 200 uM incubated for 24 hrs by immunoblotting relative to untreated control; type: cell-based
[11] = molecular target: T1, NAD-dependent protein deacylase sirtuin-6; test: Inhibition of SIRT6 in human PBMC cells assessed as reduction in staphylococcal enterotoxin B-induced cell proliferation at 200 uM incubated for 120 hrs by ATPlite assay; type: cell-based
[12] = molecular target: T1, NAD-dependent protein deacylase sirtuin-6; test: Inhibition of SIRT6 in human PBMC cells assessed as reduction in PHA-induced cell proliferation at 200 uM incubated for 120 hrs by ATPlite assay; type: cell-based
[13] = molecular target: T1, NAD-dependent protein deacylase sirtuin-6; test: Inhibition of SIRT6 in human PBMC cells assessed as reduction in staphylococcal enterotoxin B-induced cell proliferation by measuring CFSE signal level at 200 uM incubated for 120 hrs by CFSE staining based flow FACS assay (reference value: 65%); set-up: scale not given: the % may be the effect or the level left
[14] = molecular target: T1, NAD-dependent protein deacylase sirtuin-6; test: Inhibition of SIRT6 in human PBMC cells assessed as reduction in PHA-induced cell proliferation by measuring CFSE signal level at 200 uM incubated for 120 hrs by CFSE staining based flow FACS assay (reference value: 66%); set-up: scale not given: the % may be the effect or the level left
[15] = molecular target: T1, NAD-dependent protein deacylase sirtuin-6; test: Inhibition of SIRT6 in human BxPC3 cells assessed as potentiation of gemcitabine-induced cytotoxicity at 30 uM incubated for 72 hrs by Cell-titer96 aqueous one assay; type: cell-based
BXPC-3 = test: Toxicity in human BxPC3 cells assessed as reduction in cell viability at 30 uM incubated for 72 hrs by Cell-titer96 aqueous one assay; type: cell-based; conditions: bxpc-3, 72 h
[16] = molecular target: T1, NAD-dependent protein deacylase sirtuin-6; test: Inhibition of human recombinant SIRT6 assessed as reduction in NAD+-dependent deacetylase activity using Arg-His-Lys-Lys(epsilon-acetyl)-AMC substrate and NAD+ by fluorescence based assay
Homo sapiens [17] = organism: Homo sapiens; test: Selectivity index, ratio of IC50 for human recombinant SIRT1 to IC50 for human recombinant SIRT6
Homo sapiens [18] = organism: Homo sapiens; test: Selectivity index, ratio of IC50 for human recombinant SIRT2 to IC50 for human recombinant SIRT6
[19] = Ionisation constant, pKa of the compound; type: physicochemical
[20] = Partition coefficient, log P of the compound; type: physicochemical; conditions: octanol/water
[21] = Intrinsic aqueous solubility in surfactant in 9% TPGS; type: physicochemical; conditions: 9% TPGS surfactant solution
[22] = Intrinsic aqueous solubility in all polymers solutions; type: physicochemical
[23] = Intrinsic aqueous solubility in 23% Kleptose HPB; type: physicochemical
[24] = Intrinsic aqueous solubility in PBS at pH 7.4; type: physicochemical
[25] = Fraction unbound in human plasma at 1 ug/ml by rapid equilibrium dialysis; type: ADME, cell-free
[26] = Fraction unbound in human plasma at 10 ug/ml by rapid equilibrium dialysis; type: ADME, cell-free
[27] = Fraction unbound in mouse plasma at 1 ug/ml by rapid equilibrium dialysis; type: ADME, cell-free
[28] = Fraction unbound in mouse plasma at 10 ug/ml by rapid equilibrium dialysis; type: ADME, cell-free
[29] = Stability in mouse plasma assessed as half life at 1 uM at 37 degC measured after 4 hrs; type: ADME, cell-free

T1 sequence (Q8N6T7 whole entry): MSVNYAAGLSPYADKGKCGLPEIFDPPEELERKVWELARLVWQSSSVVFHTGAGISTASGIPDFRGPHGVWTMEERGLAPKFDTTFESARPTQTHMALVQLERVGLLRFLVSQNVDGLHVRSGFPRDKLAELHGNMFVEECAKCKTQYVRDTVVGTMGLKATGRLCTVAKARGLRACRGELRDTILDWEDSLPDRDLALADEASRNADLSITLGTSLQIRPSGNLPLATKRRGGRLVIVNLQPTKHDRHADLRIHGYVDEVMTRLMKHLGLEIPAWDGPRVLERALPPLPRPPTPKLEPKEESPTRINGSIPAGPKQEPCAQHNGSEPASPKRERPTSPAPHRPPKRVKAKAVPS

O=C(O)c1cccc(NC(=O)c2cccc(N3C(=O)CCS3(=O)=O)c2)c1
inhibition [1]: 5%

O=C(Nc1ccc(C(=O)O)c(O)c1)c1ccc(NC(=O)c2ccco2)cc1
inhibition [1]: 100%
IC50 [2]: 599 µM
IC50 [3]: 482 µM
inhibition [4]: Active
inhibition [5]: Active
fold change (FC) [6]: 2.5
fold change (FC) [7]: 1.7
inhibition [8]: 80%
inhibition [9]: Active
inhibition [10]: Active
inhibition [11]: Active
inhibition [12]: Active
Activity [13]: 27%
Activity [14]: 29%
inhibition [15]: Active
Activity (BXPC-3): Non-Toxic

O=C(Nc1ccc(O)c(C(=O)O)c1)c1ccc(N2C(=O)CCS2(=O)=O)cc1
inhibition [1]: 89%

Cc1ccc(C(=O)O)cc1NC(=O)c1cccc(NC(=O)c2ccco2)c1
inhibition [1]: 4%

O=C(Nc1ccc(C(=O)O)c(O)c1)c1cccc(NC(=O)c2ccco2)c1
inhibition [1]: 62%

O=C(Nc1ccc(O)c(C(=O)O)c1)c1ccc(NC(=O)C2CC2)cc1
inhibition [1]: 50%

O=C(Nc1ccc(C(=O)O)c(O)c1)c1cccc(N2C(=O)CCS2(=O)=O)c1
inhibition [1]: 44%

O=C(O)c1cccc(NC(=O)c2cccc(NC(=O)C3CCCO3)c2)c1 (stereo unspecified)
inhibition [1]: inactive

O=C(Nc1ccc(C(=O)O)c(O)c1)c1ccc(N2C(=O)CCS2(=O)=O)cc1
inhibition [1]: 100%

O=C(Nc1ccc(O)c(C(=O)O)c1)c1cccc(N2C(=O)CCS2(=O)=O)c1
inhibition [1]: 54%

O=C(Nc1ccc(O)cc1C(=O)O)c1ccc(N2C(=O)c3ccccc3C2=O)cc1
inhibition [1]: 100%
IC50 [16]: 20 µM
IC50 [2]: 424 µM
IC50 [3]: 333 µM
Ratio IC50 (Homo sapiens [17]): 21.2
Ratio IC50 (Homo sapiens [18]): 16.6
fold change (FC) [6]: 0.9
fold change (FC) [7]: 1.1
inhibition [8]: 13%
pKa [19]: 3.22
logP [20]: 3.6
solubility [21]: 50 µg/mL (≈ 124 µM)
solubility [22]: 5 µg/mL (≈ 12.4 µM)
solubility [23]: 50 µg/mL (≈ 124 µM)
solubility [24]: 70 µg/mL (≈ 174 µM)
fraction unbound at 1 ug/ml [25]: < 0.001
fraction unbound at 10 ug/ml [26]: < 0.001
fraction unbound at 1 ug/ml [27]: < 0.01
fraction unbound at 10 ug/ml [28]: < 0.01
half-life at 1 µM [29]: 462 min

CCC(=O)Nc1ccc(C(=O)Nc2ccc(C(=O)O)c(O)c2)cc1
inhibition [1]: 70%
